Assay in all cases: relative viability (nuclei count vs DMSO), 5 days (fraction); higher = more cells survive
Compound in the test “Everolimus + Palbociclib”: CO[C@H]1C[C@@H]2CC[C@@H](C)[C@@](O)(O2)C(=O)C(=O)N2CCCC[C@H]2C(=O)O[C@H]([C@H](C)C[C@@H]2CC[C@@H](OCCO)[C@H](OC)C2)CC(=O)[C@H](C)/C=C(\C)[C@@H](O)[C@@H](OC)C(=O)[C@H](C)C[C@H](C)/C=C/C=C/C=C/1C [Everolimus] + CC(=O)c1c(C)c2cnc(Nc3ccc(N4CCNCC4)cn3)nc2n(C2CCCC2)c1=O [Palbociclib] (partner 0.5 µM)
The method in brief: (§1)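 Values are medians from duplicate plates. Each reflects relative viability, defined as the nuclei count of treated wells over that of vehicle wells. Lung cancer cell lines in 1536-well plates were pin-tool dosed one day after seeding with one drug alone or with a fixed anchor-drug dose plus five library-drug doses (not always all listed) in √10 steps, then fixed, stained and imaged at 4× after 5 days.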

Compound in the test “Everolimus + Alpelisib”: CO[C@H]1C[C@@H]2CC[C@@H](C)[C@@](O)(O2)C(=O)C(=O)N2CCCC[C@H]2C(=O)O[C@H]([C@H](C)C[C@@H]2CC[C@@H](OCCO)[C@H](OC)C2)CC(=O)[C@H](C)/C=C(\C)[C@@H](O)[C@@H](OC)C(=O)[C@H](C)C[C@H](C)/C=C/C=C/C=C/1C [Everolimus] + Cc1nc(NC(=O)N2CCC[C@H]2C(N)=O)sc1-c1ccnc(C(C)(C)C(F)(F)F)c1 [Alpelisib] (partner 2 µM)
The method in brief:
as §1

Compound in the test “Everolimus + Bortezomib”: CO[C@H]1C[C@@H]2CC[C@@H](C)[C@@](O)(O2)C(=O)C(=O)N2CCCC[C@H]2C(=O)O[C@H]([C@H](C)C[C@@H]2CC[C@@H](OCCO)[C@H](OC)C2)CC(=O)[C@H](C)/C=C(\C)[C@@H](O)[C@@H](OC)C(=O)[C@H](C)C[C@H](C)/C=C/C=C/C=C/1C [Everolimus] + CC(C)C[C@H](NC(=O)[C@H](Cc1ccccc1)NC(=O)c1cnccn1)B(O)O [Bortezomib] (partner 0.002 µM)
The method in brief:
as §1

Compound in the test “Everolimus + Dasatinib”: CO[C@H]1C[C@@H]2CC[C@@H](C)[C@@](O)(O2)C(=O)C(=O)N2CCCC[C@H]2C(=O)O[C@H]([C@H](C)C[C@@H]2CC[C@@H](OCCO)[C@H](OC)C2)CC(=O)[C@H](C)/C=C(\C)[C@@H](O)[C@@H](OC)C(=O)[C@H](C)C[C@H](C)/C=C/C=C/C=C/1C [Everolimus] + Cc1nc(Nc2ncc(C(=O)Nc3c(C)cccc3Cl)s2)cc(N2CCN(CCO)CC2)n1 [Dasatinib] (partner 0.075 µM)
The method, boiled down: as §1

Regarding NCI-H727, the relative viability with Everolimus + Palbociclib (first compound 0.01 µM) was 0.642; with Everolimus + Palbociclib (first compound 0.03162 µM), 0.529; in the test with Everolimus + Palbociclib (first compound 0.1 µM), 0.725; with Everolimus + Palbociclib (first compound 0.3162 µM), 0.613; with Everolimus + Palbociclib (first compound 1 µM) it was 0.643; with Everolimus + Alpelisib (first compound 0.01 µM) it was 0.399. For the same cell line, the relative viability worked out at 0.328 with Everolimus + Alpelisib (first compound 0.03162 µM); 0.266 with Everolimus + Alpelisib (first compound 0.1 µM); 0.308 in the test with Everolimus + Alpelisib (first compound 0.3162 µM); 0.364 with Everolimus + Alpelisib (first compound 1 µM); 0.513 with Everolimus + Bortezomib (first compound 0.01 µM); 0.546 in the test with Everolimus + Bortezomib (first compound 0.03162 µM). Besides, the relative viability was 0.434 in the test with Everolimus + Bortezomib (first compound 0.1 µM); 0.597 with Everolimus + Bortezomib (first compound 0.3162 µM); 0.52 in the test with Everolimus + Bortezomib (first compound 1 µM); 0.242 in the test with Everolimus + Dasatinib (first compound 0.01 µM); 0.317 with Everolimus + Dasatinib (first compound 0.03162 µM); 0.445 in the test with Everolimus + Dasatinib (first compound 0.3162 µM). In the test with Everolimus + Dasatinib (first compound 1 µM), the relative viability came out at 0.276.

With NCI-H2085, the relative viability with Everolimus + Palbociclib (first compound 0.01 µM) was determined as 0.413; in the test with Everolimus + Palbociclib (first compound 0.03162 µM), 0.362; with Everolimus + Palbociclib (first compound 0.1 µM), 0.347; with Everolimus + Palbociclib (first compound 0.3162 µM) it was 0.335; with Everolimus + Palbociclib (first compound 1 µM) it was 0.284; with Everolimus + Alpelisib (first compound 0.01 µM), 0.668. For the same cell line, the relative viability came to 0.616 in the test with Everolimus + Alpelisib (first compound 0.03162 µM); 0.577 with Everolimus + Alpelisib (first compound 0.1 µM); 0.622 with Everolimus + Alpelisib (first compound 0.3162 µM); 0.571 with Everolimus + Alpelisib (first compound 1 µM); 0.956 with Everolimus + Bortezomib (first compound 0.01 µM); 0.827 in the test with Everolimus + Bortezomib (first compound 0.03162 µM). The relative viability with Everolimus + Bortezomib (first compound 0.1 µM) is 0.726; with Everolimus + Bortezomib (first compound 0.3162 µM), 0.805; in the test with Everolimus + Bortezomib (first compound 1 µM), 0.711; with Everolimus + Dasatinib (first compound 0.01 µM), 0.237; with Everolimus + Dasatinib (first compound 0.03162 µM) it was 0.232; with Everolimus + Dasatinib (first compound 0.1 µM) it was 0.254. Further, the relative viability was determined as 0.215 with Everolimus + Dasatinib (first compound 0.3162 µM) and 0.234 with Everolimus + Dasatinib (first compound 1 µM).

Take NCI-H1395: the relative viability in the test with Everolimus + Palbociclib (first compound 0.01 µM) was 0.482; with Everolimus + Palbociclib (first compound 0.03162 µM), 0.444; in the test with Everolimus + Palbociclib (first compound 0.1 µM) it was 0.466; with Everolimus + Palbociclib (first compound 0.3162 µM), 0.515; with Everolimus + Palbociclib (first compound 1 µM) it was 0.429; in the test with Everolimus + Alpelisib (first compound 0.01 µM), 0.787. For the same cell line, the relative viability with Everolimus + Alpelisib (first compound 0.03162 µM) came out at 0.813; with Everolimus + Alpelisib (first compound 0.1 µM), 0.722; in the test with Everolimus + Alpelisib (first compound 0.3162 µM) it was 0.759; in the test with Everolimus + Alpelisib (first compound 1 µM), 1.08; with Everolimus + Dasatinib (first compound 0.01 µM), 0.345; with Everolimus + Dasatinib (first compound 0.03162 µM), 0.396. Also, the relative viability in the test with Everolimus + Dasatinib (first compound 0.1 µM) worked out at 0.395; with Everolimus + Dasatinib (first compound 0.3162 µM), 0.358; in the test with Everolimus + Dasatinib (first compound 1 µM), 0.336.

Consider SW 900, for which the relative viability in the test with Everolimus + Palbociclib (first compound 0.01 µM) worked out at 0.445; with Everolimus + Palbociclib (first compound 0.03162 µM), 0.331; with Everolimus + Palbociclib (first compound 0.1 µM) it was 0.406; in the test with Everolimus + Palbociclib (first compound 0.3162 µM), 0.383; in the test with Everolimus + Palbociclib (first compound 1 µM), 0.318; in the test with Everolimus + Dasatinib (first compound 0.01 µM), 0.571. Also, the relative viability with Everolimus + Dasatinib (first compound 0.03162 µM) worked out at 0.345; with Everolimus + Dasatinib (first compound 0.1 µM) it was 0.34; with Everolimus + Dasatinib (first compound 0.3162 µM) it was 0.45; with Everolimus + Dasatinib (first compound 1 µM), 0.335.

As for NCI-H460, the relative viability was determined as 0.104 in the test with Everolimus + Palbociclib (first compound 0.01 µM); 0.165 with Everolimus + Palbociclib (first compound 0.03162 µM); 0.123 with Everolimus + Palbociclib (first compound 0.1 µM); 0.0825 with Everolimus + Palbociclib (first compound 0.3162 µM); 0.0699 with Everolimus + Palbociclib (first compound 1 µM); 0.22 with Everolimus + Alpelisib (first compound 0.01 µM). In addition, the relative viability with Everolimus + Alpelisib (first compound 0.03162 µM) was determined as 0.298; with Everolimus + Alpelisib (first compound 0.1 µM) it was 0.199; with Everolimus + Alpelisib (first compound 0.3162 µM), 0.271; with Everolimus + Alpelisib (first compound 1 µM), 0.168; with Everolimus + Bortezomib (first compound 0.01 µM), 0.827; with Everolimus + Bortezomib (first compound 0.03162 µM), 0.982. For the same cell line, the relative viability with Everolimus + Bortezomib (first compound 0.1 µM) is 0.672; with Everolimus + Bortezomib (first compound 0.3162 µM), 0.881; with Everolimus + Bortezomib (first compound 1 µM), 1.08; with Everolimus + Dasatinib (first compound 0.01 µM) it was 0.38; with Everolimus + Dasatinib (first compound 0.03162 µM), 0.38; with Everolimus + Dasatinib (first compound 0.1 µM), 0.323. For the same cell line, the relative viability turned out to be 0.203 with Everolimus + Dasatinib (first compound 0.3162 µM) and 0.298 with Everolimus + Dasatinib (first compound 1 µM).

Consider A549, for which the relative viability worked out at 0.328 with Everolimus + Alpelisib (first compound 0.01 µM); 0.292 in the test with Everolimus + Alpelisib (first compound 0.03162 µM); 0.272 in the test with Everolimus + Alpelisib (first compound 0.1 µM); 0.323 with Everolimus + Alpelisib (first compound 0.3162 µM); 0.204 with Everolimus + Alpelisib (first compound 1 µM).

Consider IA-LM, for which the relative viability with Everolimus + Alpelisib (first compound 0.01 µM) worked out at 0.185; with Everolimus + Alpelisib (first compound 0.03162 µM) it was 0.334; with Everolimus + Alpelisib (first compound 0.1 µM) it was 0.27; with Everolimus + Alpelisib (first compound 0.3162 µM) it was 0.149; with Everolimus + Alpelisib (first compound 1 µM), 0.288; in the test with Everolimus + Bortezomib (first compound 0.01 µM), 0.209. In addition, the relative viability turned out to be 0.255 with Everolimus + Bortezomib (first compound 0.03162 µM), 0.305 with Everolimus + Bortezomib (first compound 0.1 µM), 0.439 with Everolimus + Bortezomib (first compound 0.3162 µM) and 0.405 with Everolimus + Bortezomib (first compound 1 µM).

In the case of EKVX, the relative viability is 0.217 with Everolimus + Palbociclib (first compound 0.03162 µM); 0.188 with Everolimus + Palbociclib (first compound 0.1 µM); 0.2 with Everolimus + Palbociclib (first compound 0.3162 µM); 0.237 with Everolimus + Palbociclib (first compound 1 µM); 0.479 with Everolimus + Alpelisib (first compound 0.01 µM); 0.48 with Everolimus + Alpelisib (first compound 0.03162 µM). Further, the relative viability with Everolimus + Alpelisib (first compound 0.1 µM) came to 0.436; with Everolimus + Alpelisib (first compound 0.3162 µM), 0.61; with Everolimus + Alpelisib (first compound 1 µM), 0.449; with Everolimus + Bortezomib (first compound 0.01 µM) it was 0.636; with Everolimus + Bortezomib (first compound 0.03162 µM), 0.721; in the test with Everolimus + Bortezomib (first compound 0.1 µM), 0.631. Besides, the relative viability amounted to 0.558 with Everolimus + Bortezomib (first compound 0.3162 µM); 0.6 with Everolimus + Bortezomib (first compound 1 µM); 0.539 with Everolimus + Dasatinib (first compound 0.01 µM); 0.435 with Everolimus + Dasatinib (first compound 0.03162 µM); 0.419 with Everolimus + Dasatinib (first compound 0.1 µM); 0.366 in the test with Everolimus + Dasatinib (first compound 0.3162 µM). The relative viability with Everolimus + Dasatinib (first compound 1 µM) came to 0.287.

On to ChaGo-K-1, for which the relative viability with Everolimus + Palbociclib (first compound 0.01 µM) worked out at 0.798; with Everolimus + Palbociclib (first compound 0.03162 µM) it was 0.806; in the test with Everolimus + Palbociclib (first compound 0.1 µM), 0.802; in the test with Everolimus + Palbociclib (first compound 0.3162 µM) it was 0.768; with Everolimus + Palbociclib (first compound 1 µM), 0.914; with Everolimus + Bortezomib (first compound 0.01 µM) it was 0.992. The relative viability with Everolimus + Bortezomib (first compound 0.03162 µM) is 0.909; with Everolimus + Bortezomib (first compound 0.1 µM) it was 0.993; with Everolimus + Bortezomib (first compound 0.3162 µM) it was 0.955; with Everolimus + Bortezomib (first compound 1 µM), 1.01; with Everolimus + Dasatinib (first compound 0.01 µM) it was 0.523; with Everolimus + Dasatinib (first compound 0.03162 µM), 0.565. Also, the relative viability amounted to 0.532 in the test with Everolimus + Dasatinib (first compound 0.1 µM), 0.521 in the test with Everolimus + Dasatinib (first compound 0.3162 µM) and 0.61 with Everolimus + Dasatinib (first compound 1 µM).

On to NCI-H522, for which the relative viability with Everolimus + Palbociclib (first compound 0.01 µM) was determined as 0.793; in the test with Everolimus + Palbociclib (first compound 0.03162 µM) it was 0.701; in the test with Everolimus + Palbociclib (first compound 0.1 µM), 0.62; in the test with Everolimus + Palbociclib (first compound 0.3162 µM), 0.603; with Everolimus + Palbociclib (first compound 1 µM), 0.597; in the test with Everolimus + Dasatinib (first compound 0.01 µM) it was 0.776. Further, the relative viability with Everolimus + Dasatinib (first compound 0.03162 µM) worked out at 0.624; in the test with Everolimus + Dasatinib (first compound 0.1 µM), 0.629; with Everolimus + Dasatinib (first compound 0.3162 µM), 0.71; with Everolimus + Dasatinib (first compound 1 µM), 0.724.
